Literature values, collected in patent US20070110808A1, “Extended release osmo-microsealed formulation” (ALEMBIC LIMITED, priority 2003, published 2007).

Settings: compressed tablets, 75 to 350 mg/day in divided doses two or three times a day

## COc1ccc(C(CN(C)C)C2(O)CCCCC2)cc1.Cl (centres unmarked) [Venlafaxine Hydrochloride, 1-[2-(dimethylamino)-1-(4-methoxyphenyl)ethyl]cyclohexanol Hydrochloride]
  patients experiencing nausea: about forty five
  patients in whom vomiting occurs: about seventeen
